One may read the IC50 as the concentration at which inhibition is half-maximal. For orientation: pIC50 means −log10 of the IC50, conventionally taken in molar units.

pIC50: −log10 of the molar value. Calls of active or inactive are those of the source.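 Rule for the calls: active = maximal inhibition of the USP30 enzyme reaching 30% or more across the dose series; inactive = the rest.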 Some results are limits rather than exact numbers.

87 molecules from PubChem BioAssay AID1645865 (Buhrlage Lab, Dana-Farber Cancer Institute and Novartis …, 2021) can be followed below.

The assay deals with Ubiquitin carboxyl-terminal hydrolase 30 (Homo sapiens) (UniProt Q70CQ3). The experiment in a line: ubiquitin-specific protease 30 DUB inhibitors, concentration-effect, biochemical, validation of primary actives (AID 1645865). The note with it: purified USP30, Ub-rhodamine cleavage, fluorescence, 2 h.
Ubiquitin carboxyl-terminal hydrolase 30 (Homo sapiens), sequence (Q70CQ3 whole entry, looked up): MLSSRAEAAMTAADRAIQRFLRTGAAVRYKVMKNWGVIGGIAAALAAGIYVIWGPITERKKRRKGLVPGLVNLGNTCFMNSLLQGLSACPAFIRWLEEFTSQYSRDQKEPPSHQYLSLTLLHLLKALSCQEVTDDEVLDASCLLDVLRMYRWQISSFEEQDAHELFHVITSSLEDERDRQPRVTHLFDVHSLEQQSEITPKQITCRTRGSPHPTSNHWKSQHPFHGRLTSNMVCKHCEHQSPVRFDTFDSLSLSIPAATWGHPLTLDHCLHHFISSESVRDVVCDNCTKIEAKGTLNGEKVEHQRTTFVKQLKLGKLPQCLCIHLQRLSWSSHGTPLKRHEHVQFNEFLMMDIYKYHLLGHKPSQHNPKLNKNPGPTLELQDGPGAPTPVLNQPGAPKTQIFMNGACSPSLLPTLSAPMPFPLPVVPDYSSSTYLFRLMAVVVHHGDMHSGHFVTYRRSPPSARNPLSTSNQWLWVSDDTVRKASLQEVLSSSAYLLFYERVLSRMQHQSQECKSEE

With `Cc1ccc2nc(NC(=O)C3CCCN3S(=O)(=O)c3ccc4c(c3)OCCO4)sc2c1` (configuration not stated), the IC50 was > 50 µM (inactive).

Consider `Fc1ccc(Cn2ccc(-c3cnc(-c4ccccc4)s3)n2)cc1`, for which the IC50 was > 50 µM (inactive).

Turning to `COc1cc2c(c3oc4cccc(O)c4c(=O)c13)C1C=COC1O2` (configuration not stated), the IC50 was > 50 µM (inactive).

In the case of `CC(=O)Nc1ccc(-n2cnc(C(=O)NC(C)c3ccccc3)c2)nc1` (configuration not stated), the pIC50 is 4.59.

For `O=C(COC(=O)C1CCCN1C(=O)C12CC3CC(CC(C3)C1)C2)c1ccc(Cl)cc1` (configuration not stated), the pIC50 was 5.19.

Turning to `CC(C)CC1NC(=O)C2CCCN2C1=O` (configuration not stated), the IC50 was > 50 µM (inactive).

Turning to `O=C1N(Cc2ccc(F)cc2)CCN1c1ccc2c(c1)CCC2`, the IC50 is > 50 µM (inactive).

As to `COC(=O)c1sccc1NC(=O)COc1ccsc1C(=O)OC`, the pIC50 is 4.55.

For `COc1cccc(/C=C/C(=O)Nc2ccc(N3CCOCC3)cc2)c1OC`, the IC50 is > 50 µM (inactive).

Take `CCOc1ccc(N2C(=O)c3ccccc3C2C(=O)NCc2ccccc2OC)cc1` (configuration not stated): the pIC50 was 4.38.

Take `Cc1nc(CN2CCn3c(Cn4cccn4)cnc3C2C)cs1` (configuration not stated): the IC50 was > 50 µM (inactive).

In the case of `CN(Cc1ccccc1)S(=O)(=O)c1ccc(S(=O)(=O)N2CCN(C(=O)c3cccnc3)CC2)cc1`, the pIC50 was 4.80.

For `COC(=O)c1cc2c(ccn2C)n1CC(=O)NC1CC1`, the IC50 is > 50 µM (inactive).

On to `COc1cc(NC(=O)c2ccc3c(c2)OCO3)ccc1-c1cc2ccccc2oc1=O`, for which the pIC50 is 6.44.

For the molecule `COc1ccc(CCn2cnc3c([nH]c4ccccc43)c2=O)cc1`, the pIC50 was 5.61.

Consider `CCn1c(SCc2nc(N)c3ccccc3n2)nc2ccccc21`, for which the IC50 was > 50 µM (inactive).

On to `CCCCNc1nc2c(-c3ccccc3)nnn2c2ccccc12`, for which the pIC50 is 5.76.

For the molecule `NC(=O)C1(N2CCCCC2)CCN(C(=O)c2[nH]nc3c2CCc2ccccc2-3)CC1`, the IC50 is > 50 µM (inactive).

As for `O=C(Nc1ccccc1)c1cn2c3c(cccc3c1=O)CC2`, the IC50 was > 50 µM (inactive).

In the case of `O=C(c1ccnn1-c1ccc2ccc(-c3ccncc3)cn12)N1CCCC1`, the IC50 is > 50 µM (inactive).

Turning to `O=C(NCc1ccc2c(c1)OCO2)c1[nH]nc2c1COc1ccccc1-2`, the pIC50 was 5.71.

On to `FC(F)(F)c1cccc(N2CCN(c3nc4ccccc4n4nnnc34)CC2)c1`, for which the IC50 was > 50 µM (inactive).

As for `CC(C)NC(=O)CN1C(=O)CC(C)Sc2ccc(S(=O)(=O)N3CCCCC3)cc21` (configuration not stated), the pIC50 was 4.57.

Turning to `COc1ccccc1NC(=O)c1cc2c(C)nn(Cc3ccccc3)c2s1`, the negative-log IC50 (pIC50) is 4.54.

Turning to `O=C(Cn1c(=O)n(Cc2ccco2)c(=O)c2ccc(C(=O)NC3CCCC3)cc21)NCc1ccco1`, the IC50 was > 50 µM (inactive).

Turning to `O=S(=O)(c1ccccc1Cl)N1CCN(c2ccc3nnc(-c4ccco4)n3n2)CC1`, the IC50 was > 50 µM (inactive).

Take `Clc1cncc(Oc2nc(-c3cccnc3)nc3ccccc23)c1`: the pIC50 is 5.68.

Consider `CCCC(=O)N1CCC2(CC1)Nc1ccccc1NC2=O`, for which the IC50 is > 50 µM (inactive).

With `Nc1c(C(=O)c2cccs2)oc2nc(-c3ccccc3)cc(-c3ccco3)c12`, the IC50 was > 50 µM (inactive).

Turning to `Cc1oc(C2CC2)cc1C(=O)N1CCC2(CC1)CC1(CO2)Nc2ccccc2-n2cccc21` (configuration not stated), the IC50 is > 50 µM (inactive).

On to `CSc1nc2ncc3c(=O)n(CCc4ccccc4)ccc3n2n1`, for which the IC50 was > 50 µM (inactive).

As for `COCCn1c(=S)[nH]c2cc(C(=O)NCCSCc3ccccc3)ccc2c1=O`, the IC50 was > 5 µM (inactive).

For `COc1ccccc1/C=C/C(=O)Nc1nc2n(n1)C(c1ccc(Cl)cc1)CC(=O)N2` (configuration not stated), the IC50 was > 50 µM (inactive).

As for `C=C1CCC2[C@](C)(CCC[C@]2(C)C(=O)OC)[C@H]1CCc1ccoc1C[N+](C)(C)Cc1ccccc1` (some centres not stated), the pIC50 was 4.78.

`CC1OC1C(=O)[C@]1(O)[C@H](C)[C@@H](O)[C@@]23O[C@@]2([C@H](O)c2c(O)cccc2C3=O)[C@H]1O` (some centres not stated): the IC50 was > 50 µM (inactive).

Consider `Cc1ccc2c(c1)c(=O)c(C(=O)c1ccccc1)cn2CC(=O)Nc1ccc2c(c1)OCCO2`, for which the pIC50 is 5.58.

For `Cc1nc2sc(C(=O)Nc3ccccc3Br)c(N)c2c(C)c1C`, the pIC50 was 5.92.

With `CC(=O)C1=C(O)[C@]2(O)C(=O)c3c(c(C)c4ccc(C)c(O)c4c3O)C[C@H]2[C@@H](N)C1=O`, the pIC50 was 5.33.

On to `COc1ccc(OC)c(NC(=O)C2=C(C)Nc3ncnn3C2c2ccccc2OCc2ccc(C)cc2)c1` (configuration not stated), for which the pIC50 is 4.76.

Consider `CCOc1ccc(NS(=O)(=O)c2ccc(NC(=O)Nc3ccccc3)cc2)cc1`, for which the pIC50 is 4.76.

With `CCc1ccccc1NC(=O)c1cc(-c2ccccn2)n[nH]1`, the negative-log IC50 (pIC50) was 4.62.

Turning to `Cc1oc(-c2ccc(C(=O)NCC3COCCO3)cc2)nc1CN1CCc2ccccc21` (configuration not stated), the IC50 is > 50 µM (inactive).

As to `COc1ccc(NC(=O)CC(=O)c2ccc([N+](=O)[O-])cc2)cc1S(=O)(=O)Nc1ccc(Cl)cc1`, the pIC50 was 4.43.

As for `CCN(CC)c1nc(F)c2c(c1F)S(=O)(=O)CCN2Cc1ccccc1`, the IC50 is > 50 µM (inactive).

With `O=C(Nc1ccc(F)cc1)Nc1ccccc1OCc1cc(=O)n2ccccc2n1`, the pIC50 is 5.41.

Consider `O=C(/C=C/c1ccc2c(c1)OCO2)Nc1nc2c(s1)COCC2`, for which the pIC50 is 4.59.

In the case of `CN1C(=O)[C@@]23C[C@]4([C@@]56C[C@]78SS[C@](CO)(C(=O)N7[C@@H]5Nc5ccccc56)N(C)C8=O)c5ccccc5N[C@@H]4N2C(=O)[C@]1(CO)SS3`, the pIC50 is 6.57.

Take `Cc1ccc(NC(=O)c2nnn(-c3ccccc3)n2)cc1F`: the IC50 is > 50 µM (inactive).

For `COC(=O)c1cc2c(ccn2C)n1CC(=O)NC1CCCC1`, the IC50 was > 50 µM (inactive).

Take `CC(C)OC(=O)c1cc2c(ccn2-c2ccc(F)cc2)n1CC(=O)NC1CCCCC1`: the IC50 is > 50 µM (inactive).

As for `O=C(c1ccc(COc2cccc3ccccc23)o1)N1CCC(Cc2ccccc2)CC1`, the IC50 was > 50 µM (inactive).

As to `COC(=O)c1sc2ccccc2c1NC(=O)c1ccc(Br)s1`, the pIC50 was 4.67.

Turning to `CC(=O)N1Cc2ccccc2CC2(CCCN(CC3CCOCC3)C2)C1` (configuration not stated), the IC50 is > 50 µM (inactive).

Take `CCc1ccc(NC(=O)COC(=O)c2n[nH]c3ccccc23)cc1`: the pIC50 was 5.36.

Turning to `COC(=O)C1C(c2ccc(Cl)cc2Cl)C2(C(=O)c3ccccc3C2=O)C2C=Cc3ccccc3N12` (configuration not stated), the IC50 is > 50 µM (inactive).

As for `O=C(c1cscn1)N1CCC2(CC1)CC1(CO2)Nc2ccccc2-n2cccc21` (configuration not stated), the IC50 was > 50 µM (inactive).

With `COc1ccc(C)cc1NC(=O)C1CC(=O)Nc2nc(SCc3ccccc3)nn21` (configuration not stated), the negative logarithm of the IC50 (pIC50) was 4.80.

`O=C(Cn1cccc1-c1nc(-c2ccccc2)cs1)N1CCOCC1`: the pIC50 is 4.69.

For `O=C(CN1C(=O)NC2(CCCCC2)C1=O)Nc1ccc([N+](=O)[O-])cc1`, the pIC50 is 4.47.

For `COc1ccc2nc(-c3ccc(NC(=O)c4cccc(OC)c4OC)cc3)cn2n1`, the pIC50 was 5.72.

Turning to `CSc1ccccc1C(=O)Nc1nc(-c2ccncc2)cs1`, the pIC50 was 4.63.

In the case of `Cc1nn(Cc2ccccc2)c2sc(C(=O)Nc3nc4ccccc4[nH]3)cc12`, the pIC50 is 4.71.

For the molecule `O=C(NCc1ccc(Cl)cc1)c1ccc(N2CCCS2(=O)=O)cc1`, the IC50 was > 5 µM (inactive).

As for `Nc1nc(OCc2ccccc2)c2[nH]c(/C=C/c3cccs3)nc2n1`, the pIC50 was 4.45.

In the case of `Cc1ccc(C(=O)NCCc2nc(-c3ccc4c(c3)OCO4)n[nH]2)cc1F`, the pIC50 was 4.38.

For the molecule `CC(=O)N1CCc2cc(CNC(=O)Nc3cc(C)ccc3C)ccc21`, the IC50 was > 50 µM (inactive).

Consider `Cc1cc(C)c(NC(=O)Cn2c(=O)n(CCC(=O)NCc3ccc4c(c3)OCO4)c(=O)c3sccc32)c(C)c1`, for which the pIC50 was 5.70.

Turning to `O=C(Nc1cc(-c2cccnc2)no1)c1ccc(F)c(F)c1`, the pIC50 was 4.70.

Take `O=C1c2ccccc2NC2(C(=O)Nc3ccc(Br)cc32)N1c1ccccc1` (configuration not stated): the IC50 is > 50 µM (inactive).

Regarding `COc1ccc(-c2cc(C(C)=O)c(C)n2CCC(=O)Nc2ccc(OC)cc2OC)cc1`, the pIC50 was 4.49.

Consider `CO[C@H]1/C=C/OC2(C)Oc3c(C)c(O)c4c(c3C2=O)C2(C=C(NC(=O)/C(C)=C\C=C\[C@H](C)[C@H](O)[C@@H](C)[C@@H](O)[C@@H](C)[C@H](OC(C)=O)C1C)C4=O)OCC(=O)O2` (some centres not stated), for which the IC50 was > 50 µM (inactive).

Turning to `Cc1ccc(NC(=O)Cc2nnc3cc(-c4nc(C)no4)ccn23)cc1`, the pIC50 is 5.39.

For the molecule `O=C(Nc1cccc(F)c1)c1ncoc1-c1ccco1`, the IC50 is > 50 µM (inactive).

Consider `Cc1cccc(NC(=O)CSc2nnc(-c3n[nH]c4c3CCC4)n2N)c1`, for which the pIC50 is 4.59.

`COc1ccc(C(=O)Nc2cc(-c3ccccn3)no2)cn1`: the IC50 was > 50 µM (inactive).

Regarding `CC(C)(C)C(=O)NC(c1ccccc1)c1nnc(N2CCOCC2)o1` (configuration not stated), the IC50 is > 50 µM (inactive).

Regarding `Cc1ccc(CN2C(=O)c3cc4ccccc4n3CC2(C)C(=O)NCc2ccccc2)o1` (configuration not stated), the pIC50 was 4.83.

With `COc1cccc(C(=O)Nc2ccc(-n3cnnn3)cc2)c1`, the pIC50 is 4.61.

Regarding `O=C(COC(=O)c1cc(Cl)ccc1O)Nc1ccc2c(c1)OCCO2`, the pIC50 was 4.79.

As for `COc1cccc(-c2nc(C(N)=O)c3[nH]c(=O)n(-c4cccc(Cl)c4)c3n2)c1OC`, the IC50 was > 50 µM (inactive).

Take `O=S(=O)(c1cccc(F)c1)N1CCN(c2nnnn2-c2ccccc2)CC1`: the pIC50 was 4.50.

Take `Cc1ccc(NC(=O)CSc2nc3c(cc2C#N)C(=O)CCC3)cc1`: the pIC50 was 4.50.

For `O=C(COc1ccc(Cl)cc1)Nc1noc(-c2ccccc2)n1`, the pIC50 was 4.59.

Turning to `Cc1cccc(C(=O)N2CCc3cc(-c4nc(NC(=O)CN5CCc6ccccc6C5)sc4C)ccc32)c1`, the IC50 was > 50 µM (inactive).

For `CSc1nc(Cc2ccc(Cl)cc2)nc2ccccc12`, the IC50 was > 50 µM (inactive).

On to `COc1ccccc1CNC(=O)c1ccc(CSc2nc3ccncc3n2Cc2ccccc2)cc1`, for which the pIC50 is 4.35.

As to `COc1ccc(NC(=O)CC(=O)c2ccc([N+](=O)[O-])cc2)cc1S(=O)(=O)Nc1ccc(Br)cc1`, the pIC50 was 4.48.
